Measurements: patent US8575135B2 (Gilead Sciences, Inc., priority 2011, dated 2013)
pEC50: −log10 of the molar value. Read-outs that look alike come from different tables or passages of the source.

Key:
Test in all cases: microbe, parasite or virus in culture
[1] = tested on: stable HCV 1a RLuc replicon cells (genotype 1a H77 replicon); assay type: cell-based; details: Hepatitis C virus; for pEC50: read-out: 1a; for EC50: read-out: 1a (nM)
Method: (§1) Evaluation of Cell-Based Anti-HCV Activity:
(§2) Antiviral potency (EC50) was determined using a Renilla luciferase (RLuc)-based HCV replicon reporter assay. […] To perform the assay for genotype 2a (with M31 present in NS5A) or 2b, NS5A chimeric genotype 2a JFH-1 replicons that encodes a RLuc-Neo reporter and either genotype 2a J6 strain NS5A gene or genotype 2b MD2b-1 strain NS5A gene (both with M31 present) respectively, were either transiently transfected (t) into Huh-Lunet cells or were established as stably replicating replicon cells (s) is provided. Either cells were dispensed into 384-well plates for EC50 assays. To perform the assay for genotype 3 and 4, NS5A chimeric genotype 1b Con1 replicons that encodes a Pi-RLuc reporter and either genotype 3a S52 strain NS5A gene or genotype 4a ED43 strain NS5A gene respectively, were transiently transfected (t) into Huh-Lunet cells, which were subsequently dispensed into 384-well plates. Compounds were dissolved in DMSO at a concentration of 10 mM and diluted in DMSO either manually or using an automated pipeting instrument. Serially 3-fold diluted compounds were either manually mixed with cell culture media and added to the seeded cells or directly added to the cells using an automated instrument. […] 72 hours later, cells were lysed and Renilla luciferase activity quantified as recommended by the manufacturer (Promega-Madison, Wis.). Non-linear regression was performed to calculate EC50 values.

[2] = tested on: NS5A chimeric genotype 1b Con1 replicon with genotype 3a S52 strain NS5A gene; assay type: cell-based, HCV; details: Hepatitis C virus; for pEC50: read-out: 3a; for EC50: read-out: 3a (nM)
Method: as §1, §2

[3] = tested on: NS5A chimeric genotype 2a JFH-1 replicon with genotype 2a J6 strain NS5A gene (M31 present); assay type: cell-based, HCV; details: Hepatitis C virus; for pEC50: read-out: 2a J6
Method: as §1, §2

[4] = tested on: NS5A chimeric genotype 2a JFH-1 replicon with genotype 2b MD2b-1 strain NS5A gene (M31 present); assay type: cell-based, HCV; details: Hepatitis C virus; for pEC50: read-out: 2b
Method: as §1, §2

[5] = tested on: stable HCV 2a JFH-1 Rluc replicon cells (L31 present in NS5A); assay type: cell-based; details: Hepatitis C virus; for pEC50: read-out: 2a JFH; for EC50: read-out: 2a JFH (nM)
[6] = tested on: NS5A chimeric genotype 1b Con1 replicon with genotype 4a ED43 strain NS5A gene; assay type: cell-based, HCV; details: Hepatitis C virus; for pEC50: read-out: 4a

Row | Structure (SMILES) | pEC50 [1] | EC50 [1] [nM] | pEC50 [2] | EC50 [2] [nM] | pEC50 [3] | EC50 ([3]; read-out: 2a J6 (s) (nM)) [nM] | pEC50 [4] | EC50 ([4]; read-out: 2b (s) (nM)) [nM] | pEC50 [5] | EC50 [5] [nM] | pEC50 [6] | EC50 ([6]; read-out: 4a (s) (nM)) [nM] | EC50 ([6]; read-out: 4a (t) (nM)) [nM] | EC50 ([3]; read-out: 2a Jb (t) (nM)) [nM] | EC50 ([4]; read-out: 2b (t) (nM)) [nM]
1 | COC[C@H]1C[C@@H](c2nc3ccc4cc5c(cc4c3[nH]2)OCc2cc(-c3ccc4nc([C@@H]6CCCN6C(=O)[C@@H](NC(=O)OC)C(C)C)[nH]c4c3)ccc2-5)N(C(=O)[C@@H](NC(=O)OC)C(C)C)C1 | > 9.00 | 0.003 | 8.30 to 9.00 | 1.09 | < 8.30 | 44.4 | < 8.30 | 44.4 | > 9.00 | 0.021 | > 9.00 | 0.025 | 0.015 |  | 
2 | COC[C@@H]1C[C@@H](c2nc3c([nH]2)-c2cc4c(cc2CC3)-c2ccc(-c3cnc([C@@H]5CCCN5C(=O)[C@@H](NC(=O)OC)C(C)C)[nH]3)cc2CO4)N(C(=O)[C@@H](NC(=O)OC)C(C)C)C1 [Compound 493] | > 9.00 | 0.036 | > 9.00 | 0.05 | < 8.30 | 5.04 | > 9.00 | 0.65 | > 9.00 | 0.008 | > 9.00 | 0.018 | 0.013 |  | 
3 | CCC(=O)N[C@@H](C(=O)N1CCC[C@H]1c1ncc(-c2ccc3c(c2)COc2cc4c(ccc5nc([C@@H]6CCCN6C(=O)[C@@H](NC(=O)OC)C(C)C)[nH]c54)cc2-3)[nH]1)c1ccccc1 [Compound 499] | > 9.00 | 0.057 | > 9.00 | 0.01 | > 9.00 | 0.206 | > 9.00 | 0.04 | > 9.00 | 0.008 | > 9.00 | 0.005 | 0.021 |  | 
4 | COC(=O)N[C@H](C(=O)N1CCC[C@H]1c1ncc(-c2ccc3c(c2)COc2cc4c(cc2-3)CCc2nc([C@@H]3CCCN3C(=O)[C@H](NC(=O)C3CC3)c3ccccc3)[nH]c2-4)[nH]1)C(C)C [Compound 503] | > 9.00 | 0.062 | > 9.00 | 0.016 | > 9.00 | 0.155 | > 9.00 | 0.037 | > 9.00 | 0.012 | > 9.00 | 0.025 | 0.028 |  | 
5 | COC[C@H]1C[C@@H](c2nc3ccc4cc5c(cc4c3[nH]2)OCc2cc(-c3cnc([C@@H]4CCCN4C(=O)[C@H](NC(=O)C4CC4)c4ccccc4)[nH]3)ccc2-5)N(C(=O)[C@@H](NC(=O)OC)C(C)C)C1 [Compound 510] | > 9.00 | 0.021 | > 9.00 | 0.008 | > 9.00 | 0.018 | > 9.00 | 0.02 | > 9.00 | 0.009 | > 9.00 | 0.072 | 0.016 | 0.007 | 0.017
6 | COC(=O)N[C@H](C(=O)N1CCC[C@H]1c1ncc(-c2ccc3c(c2)COc2cc4c(ccc5nc([C@@H]6C[C@H]7C[C@H]7N6C(=O)[C@@H](NC(=O)OC)C(C)C)[nH]c54)cc2-3)[nH]1)C(C)C [Compound 518] | > 9.00 | 0.005 | > 9.00 | 0.005 | 8.30 to 9.00 | 2.49 | > 9.00 | 0.643 | > 9.00 | 0.006 | > 9.00 | 0.011 | 0.004 |  | 
7 | COC[C@H]1C[C@@H](c2nc3ccc4cc5c(cc4c3[nH]2)OCc2cc(-c3ccc4nc([C@@H]6CCCN6C(=O)[C@@H](NC(=O)OC)C(C)C)[nH]c4c3)ccc2-5)N(C(=O)[C@H](NC(=O)OC)c2ccccc2)C1 [Example MS] | > 9.00 | 0.008 |  |  | < 8.30 | 15.6 | < 8.30 | 9.56 | > 9.00 | 0.005 | > 9.00 | 0.02 | 0.014 |  | 
8 | COC(=O)N[C@H](C(=O)N1[C@@H](C)CC[C@H]1c1ncc(-c2ccc3c(c2)COc2cc4c(ccc5nc([C@@H]6CCCN6C(=O)[C@H](N)c6ccccc6)[nH]c54)cc2-3)[nH]1)C(C)C [Example NR, Methyl [(2S)-1-{(2S,5S)-2-[5-(2-{(2S)-1-[(2R)-2-amino-2-phenylacetyl]pyrrolidin-2-yl}-1,11-dihydroisochromeno[4′,3′:6,7]naphtho[1,2-d]imidazol-9-yl)-1H-imidazol-2-yl]-5-methylpyrrolidin-1-yl}-3-methyl-1-oxobutan-2-yl]carbamate] | > 9.00 | 0.026 |  |  | > 9.00 |  | > 9.00 | 0.017 | > 9.00 | 0.006 | > 9.00 | 0.007 |  | 0.118 | 0.017
9 | CC[C@H](C)[C@H](NC(=O)OC)C(=O)N1C[C@@H](COC)C[C@H]1c1ncc(-c2ccc3c(c2)COc2cc4c(ccc5nc([C@@H]6C[C@H](COC)CN6C(=O)[C@@H](NC(=O)OC)[C@@H](C)CC)[nH]c54)cc2-3)[nH]1 [Example OJ] | > 9.00 | 0.018 | > 9.00 | 0.259 | > 9.00 | 0.502 | > 9.00 | 0.813 | > 9.00 | 0.013 | > 9.00 | 0.017 | 0.026 |  | 
10 | COC(=O)N[C@H](C(=O)N1C[C@@H](COC(F)F)C[C@H]1c1nc2ccc3cc4c(cc3c2[nH]1)OCc1cc(-c2cnc([C@@H]3CC[C@H](C)N3C(=O)[C@@H](NC(=O)OC)C(C)C)[nH]2)ccc1-4)C(C)C [Example PS, methyl {(2S)-1-[(2S,5S)-2-(5-{2-[(2S,4S)-4-[(difluoromethoxy)methyl]-1-{(2S)-2-[(methoxycarbonyl)amino]-3-methylbutanoyl}pyrrolidin-2-yl]-1,11-dihydroisochromeno[4′,3′:6,7]naphtho[1,2-d]imidazol-9-yl}-1H-imidazol-2-yl)-5-methylpyrrolidin-1-yl]-3-methyl-1-oxobutan-2-yl}carbamate] | > 9.00 | 0.005 |  | 44.4 | > 9.00 |  | > 9.00 |  | > 9.00 | 0.004 |  |  |  | 0.077 | 0.113
